Tested on: HL60 MDR cells
Assay: % death of HL60 MDR cells by flow cytometry
Assay type: cell-based, human
Conditions: HL60 MDR
Description: Dot plots as a function of live versus dead cells. The cells were cultured at a concentration of 0.5 to 1 million cells per ml. Cells were untreated or treated with etomoxir or 2-deoxy-D-glucose at a concentration of 2.5 mM at the indicated concentrations for either 24 or 48 hours. In additional experiments, under each of these culture conditions, the cells were cultured for 24 hours at which time point, polyclonal anti-UCP-2 was added at a 1:1000 dilution of stock provided by Alpha Diagnostics, San Antonio, Tex. Cells were harvested and analyzed by flow cytometry. Each dot on the dot plots of FIGS. 1, 3, 5, 7, 9, and 11 represents one cell. Five thousand cells were assessed for forward scatter (FS), as a function of cell size, versus side scatter (SS), as a function of cellular granularity. The upper ellipse represents live cells by these criterion and the lower ellipse in each dot plot represents the dead cells.
Statistical Analysis, Percents, and Geometric Mean Values Percents. Gating is a tool provided by Cell Quest software and allows for the analysis of a certain population of cells. Gating around both the live and dead cell populations gave a percent of the cell numbers that was in each population. After the gates were drawn, a percent value of dead cells was calculated by taking the number of dead cells divided by the number of total cells and multiplying by one hundred.
This example illustrates an embodiment of the invention, where multi-drug resistant cancer cells were exposed to compositions of the invention. Analysis of the cells was performed using flow cytometry. The flow cytometry experiments were performed as follows. The cells were harvested, counted, and resuspended as described above. For DNA staining, the cells were washed and resuspended in ice-cold PBS and fixed by the dropwise addition of 95% ethanol. The cells were then incubated for 30 minutes on ice, washed, and resuspended in PBS containing 1% formaldehyde and 0.01% Tween. The cells were incubated with 50 units of DNAse and washed with PBS containing 5% DNAse. The cells were then incubated with anti DNA Fab (166, kind gift of Dr. Susan Wallace, University of Vermont), then washed and stained with a fluorescein conjugated second step anti-mouse immunoglobulin. The cells were then washed and resuspended in PBS/3% BSA/1% formaldehyde. The cells were stained for intracellular H2O2 using 6-carboxy-2′,7′-dichlorodihydrofluorescein diacetate (DCF-DA, Molecular Probes, Eugene, Oreg.). The cells were incubated with 1 mM DCF-DA for 20 minutes, washed twice in PBS containing 5% fetal calf serum and analyzed using flow cytometry. The mitochondrial membrane potential was assessed using MitoTracker Red (CM-H2XROS, Molecular Probes, Eugene, Oreg.). The cells were resuspended in warm (37° C.) PBS containing a final concentration of 0.5 micromolar of dye. The cells were then incubated for 30 minutes, pelleted, and resuspended in prewarmed medium for analysis. The data was acquired on a Coulter Elite Epics or Excel flow cytometer (Coulter, Hialeah, Fla.) and analyzed with CellQuest software, (Becton Dickinson, San Jose, Calif.). […] Each sample population was classified for cell size (forward scatter) and complexity (side scatter), gated on a population of interest and evaluated using 40,000 cells. Each figure describing flow cytometric data represents one of at least four replicate experiments.
All cell lines in this example were cultured in RPMI 1640 culture medium. The medium was supplemented with 5% fetal bovine serum (“FBS”), 2 mM L-Glutamine, 500 units/mL pennicillin/500 micrograms/mL of streptomycin, 10 mM HEPES Buffer, 10^−5 M 2-mercaptoethanol (“2-ME”), 1 mM MEM Sodium Pyruvate, and 0.04 micrograms/mL of Gentamicin (All reagents from Gibco BRL). The cells were maintained at 37° C. in a humidified atmosphere under 5% CO2 in air using standard cell culture techniques known to those of ordinary skill in the art. […]

CCOC(=O)C1(CCCCCCOc2ccc(Cl)cc2)CO1 (centres unmarked) [etomoxir, 2-(6-(4-chlorophenoxy)-hexyl)-oxirane-2-carboxylic acid ethyl ester]
percent of cell deaths (24 hours, 2-deoxy-D-glucose at 2.5 mM, etomoxir as in FIG. 27): 11% | percent of cell deaths (48 hours, concentrations as in FIG. 31): 14%
